The test system of this test is Ishikawa human endometrial tumor cells. As to the kind of experiment: Ishikawa alkaline phosphatase assay. The class given is cell-based. Particulars: for EC50: Homo sapiens, Ishikawa; for EC50 / Agonist % Eff: agonist mode; for Agonist % Eff: % efficacy versus the response to Tamoxifen; for Antagonist % Eff: antagonist mode, % efficacy versus E2 (1 nM) alone. An excerpt: Ishikawa Alkaline Phosphatase Assay
Ishikawa human endometrial tumor cells are maintained in MEM (minimum essential medium, with Earle's salts and L-Glutamine, Gibco BRL, Gaithersburg, Md.), supplemented with 10% fetal bovine serum (FBS) (V/V), (Gibco BRL). One day prior to assay, growth media is changed to assay medium, DMEM/F-12 (3:1) (Dulbecco's Modified Eagle Medium: Nutrient Mixture F-12, 3:1 Mixture, phenol red-free, Gibco BRL) supplemented with 5% dextran coated charcoal stripped fetal bovine serum (DCC-FBS) (Hyclone, Logen, Utah), L-Glutamine (2 mM), MEM sodium pyruvate (1 mM), HEPES (N-[2-hydroxyethyl]piperazine-N′-[2-ethanesulfonic acid] 2 mM) all from Gibco BRL). After an overnight incubation, ishikawa cells are rinsed with Dulbecco's Phosphate Buffered Saline (1×) (D-PBS) without Ca^+2 and Mg^+2 (Gibco BRL), and trypsinized by a 3 minute incubation with 0.25% Trypsin/EDTA, phenol red-free (Gibco BRL). Cells are resuspended in assay medium and adjusted to 250,000 cells/ml. Approximately 25,000 cells in a 100 ul media are added to flat-bottom 96 wells microculture plates (Costar 3596) and incubated at 37° C. in a 5% CO2 humidified incubator for 24 hours. The next day, serial dilutions of compounds are prepared in assay medium (at 6 times the final concentration in the assay). The assay is run in dual mode, agonist and antagonist modes. For the agonist mode, plates receive 25 μl/well of assay medium followed by 25 μl/well of diluted compounds (at 6× the final concentrations). For the antagonist mode, plates receive 25 μl/well of 6 nM E2 (β-Estradiol, Sigma, St. Louis, Mo.) followed by 25 μl/well of diluted compounds (at 6× the final concentrations). After an additional 48-hour incubation at 37° C. in a 5% CO2 humidified incubator, media is aspirated from wells and 100 μl fresh assay medium is added to each microculture. Serial dilutions of compounds are prepared and added to the cells as described above. After an additional 72 hour incubation at 37° C. in a 5% CO2 humidified incubator, the assay is quenched by removing media and rinsing plates twice in Dulbecco's Phosphate Buffered Saline (1×) (D-PBS) (Gibco BRL). The plates are dried for 5 min and frozen at −70° C. for at least 1 hour. The plates are then removed from the freezer and allowed to thaw at room temperature. To each well, 100 μl of 1-Step™ PNPP (Pierce Chemical Company, Rockford, Ill.) is added. After a 20-minute incubation, plates are read on a spectophotometer at 405 nm. The data is fitted to a linear interpolation to derive EC50 (for agonist mode) or IC50 (for antagonist mode) values. For the agonist mode, a % efficacy for each compound is calculated versus the response to Tamoxifen. For the antagonist mode, a % efficacy for each compound is calculated versus E2 (1 nM) alone.

The term EC50 denotes the midpoint of the concentration-response curve. Low values mean greater potency, high ones weaker potency. Regarding `Oc1ccc(C2CCc3cc(O)ccc3N2c2ccc(OCCN3CCCCC3)cc2)cc1` (stereo not drawn) [Example 3], the response was half-maximal at 262 nM (EC50), the “Agonist % Eff” value turned out to be 117% and the “Antagonist % Eff” value is −0.2%.
Taken in the same sequence, the figures for `Oc1ccc(C2CCc3cc(O)ccc3N2c2ccc(OCCN3CCCC3)cc2)cc1` (stereo not drawn) [Example 4] were 161 nM, 36% and 40%.

The values are drawn from patent publication US6962928B2, “Tetrahydroquinoline derivatives for the inhibition of osteoporosis, estrogen dependent breast cancer, endometriosis and uterine fibrosis” (Eli Lilly and Company, priority 2001, dated 2005).
